Results as given in patent publication US7915005B2, “Methods for detecting sleepiness” (Washington University in St. Louis, priority 2005, dated 2011).
“Also recorded” adds a separate entry of the source. Like-named read-outs stand apart in the source and are kept apart here.

Columns and labels:
[1] = system: wild-type flies; settings: literature and unpublished data; cited from earlier work
[2] = system: Amylase mRNA (CG18640); assay: qPCR of Amylase (CG18640) mRNA from whole heads after drug-induced waking; assay type: in vivo, Drosophila melanogaster; settings: wild-type fly heads, immediately after 14 h of drug-induced waking; caffeine 2.5 mg/mL, methamphetamine 1 mg/ml
Description: (§1) Pharmacological studies were conducted on female Canton-s flies. Three-day old Cs female flies were individually placed into 65 mm glass tubes in the Trikinetics activity monitoring system and evaluated for two days under LD. […] All groups had similar amounts of baseline sleep. In all cases, the drug was dissolved in food along with an inert dye. It could be determined, therefore, if the fly had ingested the drug not only by its behavior, but also by observing the dye in its abdomen. The following morning, after 14 h of drug treatment, two thirds of the flies from each group were frozen and RNA was extracted from whole heads and the amount of dye in the abdomen was evaluated. The remaining one third of the flies were monitored for an additional 24 h to assay the size of the homeostatic response.
Total RNA was isolated from fly heads using Trizol (Invitrogen, Carlsbad, Calif.) following the manufacturers protocol. […] Values were expressed as a percentage of untreated animals and were evaluated using a one-way ANOVA.
(§2) Sustained periods of waking in the fly can be induce pharmacologically (Hendricks, J C et al., 2000. Neuron 25: 129-138; Shaw, P J et al., 2000. Science 287: 1834-1837). […] Therefore wild-type flies were exposed to either caffeine or methamphetamine for 14 h and evaluated the magnitude of the homeostatic response. […]

[3] = system: wild-type flies; assay: Homeostatic response (sleep recovered) in the 24 h after 14 h of drug-induced waking; assay type: in vivo, Drosophila melanogaster; settings: for homeostatic response / compensation for sleep lost during drug-induced waking: 14 h on drug, 24 h recovery, caffeine 2.5 mg/ml, methamphetamine 1 mg/ml
Description: (§3) Three day old female flies were placed in 65 mm glass tubes and sleep parameters were continuously evaluated throughout all experiments using the Trikinetics activity monitoring system as previously described (Shaw, P J et al., 2000. Science 287: 1834-1837; Shaw, P J et al., 2002. Nature 417: 287-291) (www.Trikinetics.com). […] Three independent replicates of 32 flies were conducted for each time point. Following SD, two thirds of the flies from each group were frozen and RNA was extracted from whole heads. The remaining one third of the flies were monitored for an additional 24 h to assay the size of the homeostatic response. Using this protocol, both gene expression and behavior can be evaluated in siblings that have been exposed to identical environments and experimental manipulations.
as §1
as §2, with “response. As above, gene expression was evaluated using qPCR and one third of the flies were allowed to recover for 24 h after drug removal and regular food was restored.” for “response.”

[4] = system: Amy/Luc flies; assay: Bioluminescence recording in Amy/Luc flies (amylase promoter linked to firefly luciferase); assay type: in vivo, Drosophila melanogaster; settings: caffeine 2.5 mg/ml from the morning after a full night's sleep, recorded 12 h, n=9
Description: Prior to luminescence recordings, sleep was evaluated for 2 days in female Amy/Luc flies as described above with the exception that they were maintained on 0.5% sucrose supplemented with 1 mM beetle luciferin (Promega, Madison Wis.). On day 3, flies were sleep deprived for 12 h (n=9) or served as untreated controls (n=9). Flies that were sleep deprived were removed from their 65 mm glass tubes and placed into Petri dishes with 200 μl of fresh 0.5% sucrose 1 mM beetle luciferin. Siblings that had not been sleep deprived were placed into Petri dishes with 2.5 mg/ml of caffeine added to the 0.5% sucrose 1 mM beetle luciferin. Bioluminescence was subsequently recorded in 1 min bins for 12 h under photomultiplier tubes (HC135-11MOD; Hamamatsu, Shizouka, Japan) as previously described (Abraham, U, et al., 2005. J Neurosci 25: 8620-8626). Amy/Luc flies that had never been exposed to luciferin were recorded for 12 h and served as a blank. Luminescence for SD and caffeine treated flies was subtracted from the blank and smoothed using a 3 h running average. Two independent replicates were conducted.
To determine whether amylase can provide an assessment of sleep drive in real-time, a Drosophila line in which the promoter for amylase was linked to the firefly luciferase (Amy/Luc) was evaluated (Hickey, D A, et al., 1994. Proc Natl Acad Sci USA 91: 11109-11112). […]

[5] = system: wild-type flies; assay: Pharmacologically induced waking in flies (Trikinetics activity monitoring); assay type: in vivo, Drosophila melanogaster; settings: drug dissolved in food
Description: as §3
Pharmacological studies were conducted on female Canton-s flies. Three-day old Cs female flies were individually placed into 65 mm glass tubes in the Trikinetics activity monitoring system and evaluated for two days under LD. […] It could be determined, therefore, if the fly had ingested the drug not only by its behavior, but also by observing the dye in its abdomen. The following morning, after 14 h of drug treatment, two thirds of the flies from each group were frozen and RNA was extracted from whole heads and the amount of dye in the abdomen was evaluated. […]

[6] = system: amylase activity; assay: Amylase activity in fly homogenates after paraquat stress (Infinity Amylase reagent); assay type: in vivo, Drosophila melanogaster; settings: Cs female flies, 20 μM paraquat in 1% agar 5% sucrose for 16 h
Description: Amylase activity was evaluated following 28 h of sleep deprivation in Cs flies to match the duration of waking used in the human experiments. Female Cs flies were sleep deprived for 28 h beginning at lights out (8 pm). Whole body homogenates were extracted from 4 groups of 5 flies and compared to untreated circadian-matched controls; experiments were conducted in duplicate. Amylase activity was determined using the Infinity Amylase reagent (TR25421; Thermo Electron Corp, Louisville, Co., USA) according to the manufacturer's instructions. All samples were assayed in quadruplicate. To evaluate the effects of stress on amylase activity, Cs females were placed onto 20 μM paraquat dissolved in 1% agar 5% sucrose for 16 h and sacrificed at the same circadian time as the 28 h SD flies and their controls.

[7] = system: flies; settings: 20 μM paraquat, exposures longer than 16 h; Shaw et al. 2002; cited from earlier work

SMILES	waking produced by the drug [1]	Amylase (CG18640) mRNA expression vs. untreated controls [2]	homeostatic response / compensation for sleep lost during drug-induced waking [3]	waking produced by the drug [5]	further results
CC(N)Cc1ccccc1 (stereo not shown) [amphetamine]	produce waking	–	–	–	–
Cn1c(=O)c2c(ncn2C)n(C)c1=O [caffeine]	–	strongly activated; also recorded: exhibit significant increases in Amylase mRNA; also recorded: elevated	exhibit a rebound of similar magnitude as that seen following manual SD	produce sustained periods of waking	lost sleep recovered ([3]; 14 h of caffeine-induced waking, FIG. 5A): 30-50%; bioluminescence (counts/min) in Amy/Luc flies [4]: increased as the animals spent more time on caffeine; also recorded: progressive increase in bioluminescence
CN[C@@H](C)Cc1ccccc1 [methamphetamine]	–	not activated; also recorded: do not induce Amylase mRNA; also recorded: not after waking induced by methamphetamine	do not compensate for the lost sleep; also recorded: do not induce a homeostatic response	produce sustained periods of waking	–
COC(=O)C(c1ccccc1)C1CCCCN1 (stereo not shown) [methylphenidate]	produce waking	–	–	–	–
NC(=O)C[S+]([O-])C(c1ccccc1)c1ccccc1 (stereo not shown) [modafinil]	produce waking	–	–	–	–
C[n+]1ccc(-c2cc[n+](C)cc2)cc1 [paraquat]	–	–	–	–	amylase activity [6]: did not alter Amylase activity; lethality on paraquat [7]: flies begin to die during longer exposures
